Test results taken from PubChem BioAssay AID1845205 (Molecular Pharmacology Branch, DTP, NCI, 2023).
pIC50: −log10 of the molar value. Several values for one entry are separate records, joined by “and”; a condition that tells them apart may be missing. Equal entries are not always repeated.

Tested on: MPNST multicellular tumor spheroids, viability % test/control
Test: Anticancer human tumor MPNST cell line growth inhibition;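 also: spheroids exposed to agents for seven days after three days of growth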;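 as to viability, T/C: luminescence signal used as surrogate for viable cell amount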
Settings: for viability, T/C: stronger effect = lower value
How it was run: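 Single agents and combinations were tested on spheroids built from tumor cells plus HUVEC and hMSC, at half-log dilutions starting at or near clinical Cmax, else 10 microM; final DMSO 0.25% (v/v).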

## Cn1ncnc1[C@H]1c2n[nH]c(=O)c3cc(F)cc(c23)N[C@@H]1c1ccc(F)cc1
Compound 0.00949 µM
  viability, T/C: 84.8% and 85.2% and 73.3%
Compound 0.03 µM
  viability, T/C: 105% and 79.8% and 70.5%
Compound 0.0949 µM
  viability, T/C: 91.6% and 74.7% and 66.9%
Compound 0.3 µM
  viability, T/C: 76.3% and 66% and 60.6%
Compound 0.949 µM
  viability, T/C: 67.1% and 53.2% and 46.5%
Compound 3 µM
  viability, T/C: 62.9% and 51.3% and 43.7%
Curve of compound
  pIC50: < 5.52 and 6.12

## CC1COCCN1c1cc(-c2ccnn2C)c2ccnc(-c3ccn[nH]3)c2n1 (configuration not stated) + COc1cc2c(cc1O)CCNC21CSC2c3c(OC(C)=O)c(C)c4c(c3C(COC1=O)N1C(O)C3Cc5cc(C)c(OC)c(O)c5C(C21)N3C)OCO4
Curve of first compound, second compound 30 pM
  pIC50: > 7.50
Curve of first compound, second compound 94.9 pM
  pIC50: > 7.50
Curve of first compound, second compound 0.0003 µM
  pIC50: > 7.50
Curve of first compound, second compound 0.000949 µM
  pIC50: > 7.50
Curve of first compound, second compound 0.003 µM
  pIC50: > 7.50
Second compound 30 pM, first compound 0.0316 µM
  viability, T/C: 47.3%
Second compound 30 pM, first compound 0.1 µM
  viability, T/C: 48.1%
Second compound 30 pM, first compound 0.316 µM
  viability, T/C: 42%
Second compound 30 pM, first compound 1 µM
  viability, T/C: 39.2%
Second compound 30 pM, first compound 3.16 µM
  viability, T/C: 31.1%
Second compound 30 pM, first compound 10 µM
  viability, T/C: 25.6%
Second compound 94.9 pM, first compound 0.0316 µM
  viability, T/C: 47.8%
Second compound 94.9 pM, first compound 0.1 µM
  viability, T/C: 44.8%
Second compound 94.9 pM, first compound 0.316 µM
  viability, T/C: 39.4%
Second compound 94.9 pM, first compound 1 µM
  viability, T/C: 33%
Second compound 94.9 pM, first compound 3.16 µM
  viability, T/C: 29.2%
Second compound 94.9 pM, first compound 10 µM
  viability, T/C: 25.6%
Second compound 0.0003 µM, first compound 0.0316 µM
  viability, T/C: 47.8%
Second compound 0.0003 µM, first compound 0.1 µM
  viability, T/C: 44.9%
Second compound 0.0003 µM, first compound 0.316 µM
  viability, T/C: 38.7%
Second compound 0.0003 µM, first compound 1 µM
  viability, T/C: 36.9%
Second compound 0.0003 µM, first compound 3.16 µM
  viability, T/C: 28.8%
Second compound 0.0003 µM, first compound 10 µM
  viability, T/C: 24.6%
Second compound 0.000949 µM, first compound 0.0316 µM
  viability, T/C: 45.4%
Second compound 0.000949 µM, first compound 0.1 µM
  viability, T/C: 41.2%
Second compound 0.000949 µM, first compound 0.316 µM
  viability, T/C: 39.4%
Second compound 0.000949 µM, first compound 1 µM
  viability, T/C: 31.3%
Second compound 0.000949 µM, first compound 3.16 µM
  viability, T/C: 24.2%
Second compound 0.000949 µM, first compound 10 µM
  viability, T/C: 20.7%
Second compound 0.003 µM, first compound 0.0316 µM
  viability, T/C: 12.2%
Second compound 0.003 µM, first compound 0.1 µM
  viability, T/C: 11.1%
Second compound 0.003 µM, first compound 0.316 µM
  viability, T/C: 10.5%
Second compound 0.003 µM, first compound 1 µM
  viability, T/C: 6.65%
Second compound 0.003 µM, first compound 3.16 µM
  viability, T/C: 5.18%
Second compound 0.003 µM, first compound 10 µM
  viability, T/C: 4.99%
